Test results published in paper PMC5218480 (PLoS ONE, 2017).

System: MV-4-11 cells
Test: Gene expression microarray analysis (Affymetrix PrimeView) and GSEA
Type: cell-based, human
Design: RFU PODN (11730768_x_at) / Fold change /veh PODN (11730768_x_at) / RFU LINC00158 (11744669_a_at) / Fold change /veh LINC00158 (11744669_a_at) / RFU DUSP10 (11751237_a_at) / Fold change /veh DUSP10 (11751237_a_at) / RFU ID3 (11757404_x_at) / Fold change /veh ID3 (11757404_x_at) / RFU PLEKHG5 (11737974_s_at) / Fold change /veh PLEKHG5 (11737974_s_at) / RFU LRRC4B (11730491_at) / Fold change /veh LRRC4B (11730491_at) / RFU GIMAP4 (11747438_a_at) / Fold change /veh GIMAP4 (11747438_a_at) / RFU KRT8 (11758183_x_at) / Fold change /veh KRT8 (11758183_x_at) / RFU CNN1 (11734310_a_at) / Fold change /veh CNN1 (11734310_a_at) / RFU VPS37D (11726825_at) / Fold change /veh VPS37D (11726825_at) / RFU C10orf10 (11716522_x_at) / Fold change /veh C10orf10 (11716522_x_at) / RFU KIR2DL2 /// KIR2DL4 /// KIR2DL5A /// KIR2DL5B /// KIR2DS1 /// KIR2DS2 /// KIR2DS3 /// KIR2DS4 /// KIR3DL3 /// KIR3DL3 /// KIR3DS1 (11738374_at) / Fold change /veh KIR2DL2 /// KIR2DL4 /// KIR2DL5A /// KIR2DL5B /// KIR2DS1 /// KIR2DS2 /// KIR2DS3 /// KIR2DS4 /// KIR3DL3 /// KIR3DL3 /// KIR3DS1 (11738374_at) / RFU C1QL1 (11718748_at) / Fold change /veh C1QL1 (11718748_at) / RFU TMPRSS4 (11747572_a_at) / Fold change /veh TMPRSS4 (11747572_a_at) / RFU HAMP (11756126_x_at) / Fold change /veh HAMP (11756126_x_at) / RFU RNFT2 (11725882_a_at) / Fold change /veh RNFT2 (11725882_a_at) / RFU NR4A2 (11747474_a_at) / Fold change /veh NR4A2 (11747474_a_at) / RFU ABCC12 (11746883_a_at) / Fold change /veh ABCC12 (11746883_a_at) / RFU TMEM136 (11760407_x_at) / Fold change /veh TMEM136 (11760407_x_at) / RFU CLDN22 /// WWC2 (11732394_at) / Fold change /veh CLDN22 /// WWC2 (11732394_at) / RFU HLA-DPB1 (11760878_x_at) / Fold change /veh HLA-DPB1 (11760878_x_at) / RFU SPINT1 (11716480_a_at) / Fold change /veh SPINT1 (11716480_a_at) / RFU GAP43 (11754022_s_at) / Fold change /veh GAP43 (11754022_s_at) / RFU A4GNT (11735810_at) / Fold change /veh A4GNT (11735810_at) / RFU PRB3 (11715151_x_at) / Fold change /veh PRB3 (11715151_x_at) / RFU TUBB4B (11761932_at) / Fold change /veh TUBB4B (11761932_at) / RFU CAPN14 (11732068_a_at) / Fold change /veh CAPN14 (11732068_a_at) / RFU TMCC2 (11721928_a_at) / Fold change /veh TMCC2 (11721928_a_at) / RFU IRGQ (11745062_a_at) / Fold change /veh IRGQ (11745062_a_at) / RFU FAM174B (11720279_a_at) / Fold change /veh FAM174B (11720279_a_at) / RFU TMPRSS4 (11748680_a_at) / Fold change /veh TMPRSS4 (11748680_a_at) / RFU FAM212B (11763350_a_at) / Fold change /veh FAM212B (11763350_a_at) / RFU PLEKHG5 (11743358_a_at) / Fold change /veh PLEKHG5 (11743358_a_at) / RFU ZSCAN30 (11745921_a_at) / Fold change /veh ZSCAN30 (11745921_a_at) / RFU CMKLR1 (11741424_a_at) / Fold change /veh CMKLR1 (11741424_a_at) / RFU LOC101060620 /// MAPK8IP1 (11723275_at) / Fold change /veh LOC101060620 /// MAPK8IP1 (11723275_at) / RFU SPTSSB (11747773_x_at) / Fold change /veh SPTSSB (11747773_x_at) / RFU PRSS12 (11739890_at) / Fold change /veh PRSS12 (11739890_at) / RFU BIN1 (11741810_x_at) / Fold change /veh BIN1 (11741810_x_at) / RFU WNT11 (11732464_a_at) / Fold change /veh WNT11 (11732464_a_at) / RFU C10orf10 (11716521_a_at) / Fold change /veh C10orf10 (11716521_a_at) / RFU C5orf56 (11738089_at) / Fold change /veh C5orf56 (11738089_at) / RFU CYB561 (11721691_x_at) / Fold change /veh CYB561 (11721691_x_at) / RFU ANKRD19P (11752326_a_at) / Fold change /veh ANKRD19P (11752326_a_at) / RFU OR2T12 /// OR2T33 /// OR2T8 (11738714_s_at) / Fold change /veh OR2T12 /// OR2T33 /// OR2T8 (11738714_s_at) / RFU VCAN (11748164_a_at) / Fold change /veh VCAN (11748164_a_at) / RFU JSRP1 (11732532_at) / Fold change /veh JSRP1 (11732532_at) / RFU KRTAP10-11 (11738290_x_at) / Fold change /veh KRTAP10-11 (11738290_x_at) / RFU MYO3A (11730013_a_at) / Fold change /veh MYO3A (11730013_a_at) / RFU EBF3 (11725865_a_at) / Fold change /veh EBF3 (11725865_a_at) / RFU CAMK2N1 (11719241_x_at) / Fold change /veh CAMK2N1 (11719241_x_at) / RFU C5orf56 (11738088_a_at) / Fold change /veh C5orf56 (11738088_a_at) / RFU OLFML3 (11715873_a_at) / Fold change /veh OLFML3 (11715873_a_at) / RFU LOC100653217 /// NTM (11731650_a_at) / Fold change /veh LOC100653217 /// NTM (11731650_a_at) / RFU MAPK11 (11762145_a_at) / Fold change /veh MAPK11 (11762145_a_at) / RFU FIZ1 (11724087_x_at) / Fold change /veh FIZ1 (11724087_x_at) / RFU OASL (11726364_x_at) / Fold change /veh OASL (11726364_x_at) / RFU SOX15 (11748057_x_at) / Fold change /veh SOX15 (11748057_x_at) / RFU CD79A (11719716_a_at) / Fold change /veh CD79A (11719716_a_at) / RFU HIST1H1D (11736915_at) / Fold change /veh HIST1H1D (11736915_at) / RFU CASKIN2 (11723855_a_at) / Fold change /veh CASKIN2 (11723855_a_at) / RFU LOC730098 (11760151_x_at) / Fold change /veh LOC730098 (11760151_x_at) / RFU OR4N2 (11742367_at) / Fold change /veh OR4N2 (11742367_at) / RFU PRRT2 (11749266_a_at) / Fold change /veh PRRT2 (11749266_a_at) / RFU SNX32 (11753110_a_at) / Fold change /veh SNX32 (11753110_a_at) / RFU CDHR5 (11726645_a_at) / Fold change /veh CDHR5 (11726645_a_at) / RFU RCAN1 (11760418_a_at) / Fold change /veh RCAN1 (11760418_a_at) / RFU FAM167A (11723789_a_at) / Fold change /veh FAM167A (11723789_a_at) / RFU FAM26E (11764081_at) / Fold change /veh FAM26E (11764081_at) / RFU ISYNA1 (11749810_s_at) / Fold change /veh ISYNA1 (11749810_s_at) / RFU ACY1 (11761880_at) / Fold change /veh ACY1 (11761880_at) / RFU 11764098_at / Fold change /veh 11764098_at / RFU SAMD14 (11745864_x_at) / Fold change /veh SAMD14 (11745864_x_at) / RFU NPB (11741838_a_at) / Fold change /veh NPB (11741838_a_at) / RFU TMPRSS6 (11731388_a_at) / Fold change /veh TMPRSS6 (11731388_a_at) / RFU KRTAP10-2 (11738614_at) / Fold change /veh KRTAP10-2 (11738614_at) / RFU ARHGAP8 /// PRR5-ARHGAP8 (11727945_x_at) / Fold change /veh ARHGAP8 /// PRR5-ARHGAP8 (11727945_x_at) / RFU KRTAP5-7 /// NADSYN1 (11734609_at) / Fold change /veh KRTAP5-7 /// NADSYN1 (11734609_at) / RFU RASL12 (11751679_a_at) / Fold change /veh RASL12 (11751679_a_at) / RFU CDKN2B (11736163_a_at) / Fold change /veh CDKN2B (11736163_a_at) / RFU PRF1 (11729649_at) / Fold change /veh PRF1 (11729649_at) / RFU, ZNF638 /// ZNF638-IT1 / Fold change vs veh, ZNF638 /// ZNF638-IT1 / RFU, PANK3 / Fold change vs veh, PANK3 / RFU, SH3YL1 / Fold change vs veh, SH3YL1 / RFU, ZEB2 / Fold change vs veh, ZEB2 / RFU, NRIP1 / Fold change vs veh, NRIP1 / RFU, PTTG1IP / Fold change vs veh, PTTG1IP / RFU, CAPN2 / Fold change vs veh, CAPN2 / RFU, MED14 / Fold change vs veh, MED14 / RFU, SNORA58 / Fold change vs veh, SNORA58 / RFU, C1orf63 / Fold change vs veh, C1orf63 / RFU, LRRFIP1 / Fold change vs veh, LRRFIP1 / RFU, NDUFAF7 / Fold change vs veh, NDUFAF7 / RFU, SLC12A2 / Fold change vs veh, SLC12A2 / RFU, IBTK / Fold change vs veh, IBTK / RFU, ESF1 / Fold change vs veh, ESF1 / Fold change vs veh, TMEM50B / RFU, TAOK1 / Fold change vs veh, TAOK1 / RFU, ACBD3 / Fold change vs veh, ACBD3 / RFU, TMA16 / Fold change vs veh, TMA16 / RFU, RWDD3 / Fold change vs veh, RWDD3 / RFU, BCAT1 / Fold change vs veh, BCAT1 / RFU, EDEM3 / Fold change vs veh, EDEM3 / RFU, TMEM33 / Fold change vs veh, TMEM33 / RFU, WDR75 / Fold change vs veh, WDR75 / RFU, AHCTF1 / Fold change vs veh, AHCTF1 / RFU, TFRC / Fold change vs veh, TFRC / RFU, ZDHHC17 / Fold change vs veh, ZDHHC17 / RFU, NOM1 / Fold change vs veh, NOM1 / RFU, ARL8B / Fold change vs veh, ARL8B / RFU, ZBTB11 / Fold change vs veh, ZBTB11 / RFU, TAMM41 / Fold change vs veh, TAMM41 / RFU, KIAA1704 /// LOC100996395 / Fold change vs veh, KIAA1704 /// LOC100996395 / RFU, ING1 / Fold change vs veh, ING1 / RFU, TRMT61B / Fold change vs veh, TRMT61B / RFU, FUBP3 / Fold change vs veh, FUBP3 / RFU, TP53 / Fold change vs veh, TP53 / RFU, TNKS2 / Fold change vs veh, TNKS2 / RFU, ZFP14 / Fold change vs veh, ZFP14 / RFU, ACTR2 / Fold change vs veh, ACTR2 / RFU, PPP3R1 / Fold change vs veh, PPP3R1 / RFU, PIK3R1 / Fold change vs veh, PIK3R1 / RFU, HNRNPA1 / Fold change vs veh, HNRNPA1 / RFU, RNF170 / Fold change vs veh, RNF170 / RFU, ZNF28 / Fold change vs veh, ZNF28 / RFU, RNGTT / Fold change vs veh, RNGTT / RFU, OGT / Fold change vs veh, OGT / RFU, BRD1 / Fold change vs veh, BRD1 / RFU, MARS / Fold change vs veh, MARS / RFU, ZNF655 / Fold change vs veh, ZNF655 / RFU, FAHD1 / Fold change vs veh, FAHD1 / RFU, BDP1 / Fold change vs veh, BDP1 / RFU, LRRCC1 / Fold change vs veh, LRRCC1 / RFU, ARID1A / Fold change vs veh, ARID1A / RFU, ZNF146 / Fold change vs veh, ZNF146 / RFU, ZNF330 / Fold change vs veh, ZNF330 / RFU, GPN3 / Fold change vs veh, GPN3 / RFU, C9orf123 / Fold change vs veh, C9orf123 / RFU, N4BP2L2 / Fold change vs veh, N4BP2L2 / RFU, ARFIP1 / Fold change vs veh, ARFIP1 / RFU, FAM179B / Fold change vs veh, FAM179B / RFU, BCL10 / Fold change vs veh, BCL10 / RFU, UHRF1BP1L / Fold change vs veh, UHRF1BP1L / RFU, BET1 / Fold change vs veh, BET1 / RFU, CNOT2 / Fold change vs veh, CNOT2 / RFU, ZNF268 / Fold change vs veh, ZNF268 / Fold change vs veh, ZNF507 / RFU, DGCR2 / Fold change vs veh, DGCR2 / RFU, WDSUB1 / Fold change vs veh, WDSUB1 / Fold change vs veh, HSP90B1 /// MIR3652 / RFU, ADSS / Fold change vs veh, ADSS / RFU, GK / Fold change vs veh, GK / RFU, ZNF148 / Fold change vs veh, ZNF148 / RFU, TAF9 / Fold change vs veh, TAF9 / RFU, SLC1A5 / Fold change vs veh, SLC1A5 / RFU, SLMO2 / Fold change vs veh, SLMO2 / RFU, ABCC4 / Fold change vs veh, ABCC4 / RFU, LOC101060439 /// RAP1B / Fold change vs veh, LOC101060439 /// RAP1B / RFU, RFX7 / Fold change vs veh, RFX7 / RFU, GTPBP10 / Fold change vs veh, GTPBP10 / RFU, CNEP1R1 / Fold change vs veh, CNEP1R1 / RFU, BIVM-ERCC5 /// ERCC5 / Fold change vs veh, BIVM-ERCC5 /// ERCC5 / RFU, ILF3 / Fold change vs veh, ILF3 / RFU 11762660_at / Fold change /veh 11762660_at / RFU VCAN (11757783_s_at) / Fold change /veh VCAN (11757783_s_at) / RFU DDX43 (11728927_at) / Fold change /veh DDX43 (11728927_at) / RFU KRT8 (11758188_x_at) / Fold change /veh KRT8 (11758188_x_at) / RFU NKD1 (11759106_at) / Fold change /veh NKD1 (11759106_at) / RFU SRD5A1 (11742802_a_at) / Fold change /veh SRD5A1 (11742802_a_at) / RFU TPSAB1 /// TPSB2 (11721975_s_at) / Fold change /veh TPSAB1 /// TPSB2 (11721975_s_at) / RFU GSTM3 (11746129_a_at) / Fold change /veh GSTM3 (11746129_a_at) / RFU IL23R (11737362_x_at) / Fold change /veh IL23R (11737362_x_at) / RFU TMEM51 (11727254_a_at) / Fold change /veh TMEM51 (11727254_a_at) / RFU PIWIL2 (11732686_x_at) / Fold change /veh PIWIL2 (11732686_x_at) / RFU ORM1 (11744905_x_at) / Fold change /veh ORM1 (11744905_x_at) / RFU CCDC152 (11743942_at) / Fold change /veh CCDC152 (11743942_at) / RFU ECM1 (11717891_a_at) / Fold change /veh ECM1 (11717891_a_at) / RFU IL23R (11748794_a_at) / Fold change /veh IL23R (11748794_a_at) / RFU TNFAIP8L3 (11732012_x_at) / Fold change /veh TNFAIP8L3 (11732012_x_at) / RFU MBOAT4 (11741988_at) / Fold change /veh MBOAT4 (11741988_at) / RFU 11764193_at / Fold change /veh 11764193_at / RFU TMEM53 (11763286_at) / Fold change /veh TMEM53 (11763286_at) / RFU MAGEB2 (11727129_at) / Fold change /veh MAGEB2 (11727129_at) / RFU TMEM200A (11744735_a_at) / Fold change /veh TMEM200A (11744735_a_at) / RFU CCDC152 (11751479_a_at) / Fold change /veh CCDC152 (11751479_a_at) / RFU FAM211A (11726209_a_at) / Fold change /veh FAM211A (11726209_a_at) / RFU RGS16 (11746705_a_at) / Fold change /veh RGS16 (11746705_a_at) / RFU VCAN (11755009_s_at) / Fold change /veh VCAN (11755009_s_at) / RFU RHOB (11743442_s_at) / Fold change /veh RHOB (11743442_s_at) / RFU RGS16 (11720943_a_at) / Fold change /veh RGS16 (11720943_a_at) / RFU RGS16 (11720944_at) / Fold change /veh RGS16 (11720944_at) / RFU, VPS4B / Fold change vs veh, VPS4B / RFU, CREB1 / Fold change vs veh, CREB1 / RFU, DNAJC13 / Fold change vs veh, DNAJC13 / RFU, GNAQ / Fold change vs veh, GNAQ / RFU, CDK5R1 / Fold change vs veh, CDK5R1 / RFU, ZRANB3 / Fold change vs veh, ZRANB3 / RFU, CUL4A / Fold change vs veh, CUL4A / RFU, CCNY / Fold change vs veh, CCNY / RFU, UFL1 / Fold change vs veh, UFL1 / RFU, COG3 / Fold change vs veh, COG3 / RFU, DIAPH2 / Fold change vs veh, DIAPH2 / RFU, SKA2 / Fold change vs veh, SKA2 / RFU, AFF3 / Fold change vs veh, AFF3 / RFU, LMF1 / Fold change vs veh, LMF1 / RFU, IPO11 / Fold change vs veh, IPO11 / RFU, DFFB / Fold change vs veh, DFFB / RFU, FOXP1 / Fold change vs veh, FOXP1 / RFU, CARD8 / Fold change vs veh, CARD8 / RFU, STRN3 / Fold change vs veh, STRN3 / RFU, ADK / Fold change vs veh, ADK / RFU, RASSF2 / Fold change vs veh, RASSF2 / RFU, WIPF1 / Fold change vs veh, WIPF1 / RFU, LARP1B / Fold change vs veh, LARP1B / RFU, RASA1 / Fold change vs veh, RASA1 / RFU, RB1 / Fold change vs veh, RB1 / RFU, PPFIA1 / Fold change vs veh, PPFIA1 / RFU, MAT2A / Fold change vs veh, MAT2A / RFU, CCT5 / Fold change vs veh, CCT5 / RFU, WDR92 / Fold change vs veh, WDR92 / RFU, CUX1 / Fold change vs veh, CUX1 / RFU, TTC7A / Fold change vs veh, TTC7A / RFU, TMEM135 / Fold change vs veh, TMEM135 / RFU, DEPTOR / Fold change vs veh, DEPTOR / RFU, CPM / Fold change vs veh, CPM / RFU, DNAJB6 / Fold change vs veh, DNAJB6 / RFU, CACNA2D3 / Fold change vs veh, CACNA2D3 / RFU, DTX4 / Fold change vs veh, DTX4 / RFU, TFCP2 / Fold change vs veh, TFCP2 / RFU, GMCL1 /// GMCL1P1 / Fold change vs veh, GMCL1 /// GMCL1P1 / RFU, AEBP2 / Fold change vs veh, AEBP2 / RFU, SNHG1 /// SNORD22 /// SNORD25 /// SNORD26 /// SNORD27 /// SNORD28 /// SNORD29 /// SNORD31 / Fold change vs veh, SNHG1 /// SNORD22 /// SNORD25 /// SNORD26 /// SNORD27 /// SNORD28 /// SNORD29 /// SNORD31 / Fold change (Aza/veh), C12orf56 (ProbeSet 11735607_a_at) / Fold change (ACY-1035/veh), C12orf56 (ProbeSet 11735607_a_at) / Fold change (Aza/veh), FGFR1OP (ProbeSet 11751329_s_at) / Fold change (ACY-1035/veh), FGFR1OP (ProbeSet 11751329_s_at) / Fold change (Aza/veh), VPS36 (ProbeSet 11739960_a_at) / Fold change (ACY-1035/veh), VPS36 (ProbeSet 11739960_a_at) / RFU SYPL1 (11715823_x_at) / Fold change /veh SYPL1 (11715823_x_at) / RFU IGFBP7 (11715501_s_at) / Fold change /veh IGFBP7 (11715501_s_at) / RFU REEP3 (11722064_at) / Fold change /veh REEP3 (11722064_at) / RFU IGLL1 (11728026_x_at) / Fold change /veh IGLL1 (11728026_x_at): dose or concentration left out as unconfirmed
Settings: ProbeSet 11725100_s_at; LIST B

Compound: Nc1ccc(-c2cccs2)cc1NC(=O)c1ccc2c(c1)cc(C1CC1)n2CCN1CCOCC1 [ACY-1035]
- Fold change vs veh, ESF1: 0.88
